Assay results: US20250205344A1, “2,4-DIOXOTETRAHYDROPYRIMIDINYL DERATIVES AS DEGRONS IN PROTACS” (GLAXOSMITHKLINE INTELLECTUAL PROPERTY DEVELOPMENT LIMITED, priority 2022, published 2025)
Structures can show the parent of a compound that is named as a salt.

Each compound was assayed against T1, Androgen Receptor (Homo sapiens, UniProt P10275, T878A) (assay: Androgen Receptor Degradation Assay (Nano-Glo HiBiT)). Conditions: HiBiT-tagged AR in human LnCaP cells, 18 h.
T1 construct: the AR gene was modified, using CRISPR/Cas9 editing, so the expressed AR protein included an 11 amino acid HiBiT tag; endogenous in cells; host or cells: clonal LnCaP-derived line, AR gene edited by CRISPR/Cas9
Assay type: cell-based
Procedure, shortened: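 LnCaP cells with CRISPR-knocked-in N-terminal HiBiT-tagged AR (10,000/well) treated 18 h at 37 °C with PROTACs over 11 threefold concentrations; lytic HiBiT luminescence normalised to DMSO (0%) and cell-free (100%) controls. Relative DC50 = 4-parameter fit inflection; absolute DC50 = 50% degradation interpolation; Dmax = maximum observed degradation.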

T1 sequence (P10275 whole entry T878A): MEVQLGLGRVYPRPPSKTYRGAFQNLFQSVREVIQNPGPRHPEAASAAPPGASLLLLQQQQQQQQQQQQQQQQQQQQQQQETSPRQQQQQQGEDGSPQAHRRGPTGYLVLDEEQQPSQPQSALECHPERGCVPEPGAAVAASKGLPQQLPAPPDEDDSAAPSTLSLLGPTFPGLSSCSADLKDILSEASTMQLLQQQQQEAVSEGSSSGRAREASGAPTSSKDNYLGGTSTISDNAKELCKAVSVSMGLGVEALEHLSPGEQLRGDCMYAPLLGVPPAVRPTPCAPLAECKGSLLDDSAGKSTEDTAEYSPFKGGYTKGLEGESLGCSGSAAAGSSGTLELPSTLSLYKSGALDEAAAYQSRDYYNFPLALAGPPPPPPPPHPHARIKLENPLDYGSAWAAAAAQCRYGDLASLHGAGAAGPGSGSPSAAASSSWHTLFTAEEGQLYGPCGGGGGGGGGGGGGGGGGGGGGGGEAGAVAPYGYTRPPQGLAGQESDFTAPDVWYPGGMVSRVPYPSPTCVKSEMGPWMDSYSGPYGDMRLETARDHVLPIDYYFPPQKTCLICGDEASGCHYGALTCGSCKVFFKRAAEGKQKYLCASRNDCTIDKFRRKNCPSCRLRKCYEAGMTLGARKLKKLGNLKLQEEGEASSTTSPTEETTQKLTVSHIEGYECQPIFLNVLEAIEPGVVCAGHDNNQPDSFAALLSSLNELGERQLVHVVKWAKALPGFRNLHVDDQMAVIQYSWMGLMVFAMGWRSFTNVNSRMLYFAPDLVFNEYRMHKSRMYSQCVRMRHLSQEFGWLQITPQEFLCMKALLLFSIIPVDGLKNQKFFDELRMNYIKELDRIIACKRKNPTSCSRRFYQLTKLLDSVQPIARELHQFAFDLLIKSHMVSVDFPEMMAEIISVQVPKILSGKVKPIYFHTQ
T1 sequence (Q96SW2 whole entry partner): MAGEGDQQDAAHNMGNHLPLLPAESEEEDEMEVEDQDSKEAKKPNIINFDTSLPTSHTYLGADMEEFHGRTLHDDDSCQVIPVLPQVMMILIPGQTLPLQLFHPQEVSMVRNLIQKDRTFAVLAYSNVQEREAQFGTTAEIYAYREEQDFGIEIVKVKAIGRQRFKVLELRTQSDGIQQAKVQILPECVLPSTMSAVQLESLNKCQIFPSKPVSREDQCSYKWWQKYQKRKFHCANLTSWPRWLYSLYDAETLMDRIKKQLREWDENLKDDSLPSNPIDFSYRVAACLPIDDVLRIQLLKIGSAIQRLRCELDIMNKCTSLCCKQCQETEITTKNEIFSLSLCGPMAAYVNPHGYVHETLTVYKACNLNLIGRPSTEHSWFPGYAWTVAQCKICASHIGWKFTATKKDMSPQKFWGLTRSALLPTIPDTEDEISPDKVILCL
T1 sequence (Q16531 whole entry partner): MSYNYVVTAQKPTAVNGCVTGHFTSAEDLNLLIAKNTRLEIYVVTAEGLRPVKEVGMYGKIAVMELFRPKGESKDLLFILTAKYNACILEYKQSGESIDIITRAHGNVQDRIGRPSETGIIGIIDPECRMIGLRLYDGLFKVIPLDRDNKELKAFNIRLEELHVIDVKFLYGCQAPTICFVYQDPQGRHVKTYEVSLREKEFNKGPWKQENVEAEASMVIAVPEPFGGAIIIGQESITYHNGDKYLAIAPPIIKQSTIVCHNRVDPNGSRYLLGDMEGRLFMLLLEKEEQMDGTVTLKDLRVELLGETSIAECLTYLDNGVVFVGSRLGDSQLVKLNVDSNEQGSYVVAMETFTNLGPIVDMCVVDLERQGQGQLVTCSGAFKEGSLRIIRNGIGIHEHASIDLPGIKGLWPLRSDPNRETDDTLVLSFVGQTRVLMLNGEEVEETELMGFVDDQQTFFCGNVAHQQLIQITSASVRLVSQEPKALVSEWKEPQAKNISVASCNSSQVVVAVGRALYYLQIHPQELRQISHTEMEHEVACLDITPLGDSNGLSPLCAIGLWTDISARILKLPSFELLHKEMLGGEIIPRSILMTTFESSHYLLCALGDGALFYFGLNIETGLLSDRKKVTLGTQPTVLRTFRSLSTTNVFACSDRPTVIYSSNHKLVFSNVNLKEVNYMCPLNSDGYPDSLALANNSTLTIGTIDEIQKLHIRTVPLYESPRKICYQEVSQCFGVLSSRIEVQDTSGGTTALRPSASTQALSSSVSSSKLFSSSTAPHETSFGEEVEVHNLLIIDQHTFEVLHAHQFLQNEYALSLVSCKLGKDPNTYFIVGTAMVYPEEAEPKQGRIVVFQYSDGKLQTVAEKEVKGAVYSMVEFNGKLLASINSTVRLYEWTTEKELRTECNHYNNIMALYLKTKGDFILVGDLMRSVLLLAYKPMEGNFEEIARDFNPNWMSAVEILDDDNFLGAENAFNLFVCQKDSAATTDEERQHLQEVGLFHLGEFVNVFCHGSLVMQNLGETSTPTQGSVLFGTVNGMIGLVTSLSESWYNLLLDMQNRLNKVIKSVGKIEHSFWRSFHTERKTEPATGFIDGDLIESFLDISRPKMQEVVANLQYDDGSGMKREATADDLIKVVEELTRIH

| mean relative pDC50 | Structure (SMILES) |
| --- | --- |
| 5.54 | CC1(C)[C@H](NC(=O)c2ncc(N3CCC(CN4CCC(n5ncc6c(N7CCC(=O)NC7=O)cccc65)CC4)CC3)cn2)C(C)(C)[C@H]1Oc1cnc(C#N)c(Cl)c1 [EAR268, N-((1r,3r)-3-((5-Chloro-6-cyanopyridin-3-yl)oxy)-2,2,4,4-tetramethylcyclobutyl)-5-(4-((4-(4-(2,4-dioxotetrahydropyrimidin-1(2H)-yl)-1H-indazol-1-yl)piperidin-1-yl)methyl)piperidin-1-yl)pyrimidine-2-carboxamide] |

Same assay, conditions: LNCaP, 18 h, HiBiT-tagged AR in human LnCaP cells, read-out: mean asymptote max

| Structure (SMILES) | Dmax |
| --- | --- |
| C[C@@H]1CN(c2ccc(C#N)c(Cl)c2)[C@@H](C)CN1C(=O)c1ccc(OCCCCCN2CCC(n3ncc4c(N5CCC(=O)NC5=O)cncc43)CC2)nc1 [EAR164, 2-Chloro-4-((2S,5R)-4-(6-((5-(4-(4-(2,4-dioxotetrahydropyrimidin-1(2H)-yl)-1H-pyrazolo[3,4-c]pyridin-1-yl)piperidin-1-yl)pentyl)oxy)nicotinoyl)-2,5-dimethylpiperazin-1-yl)benzonitrile] | ≥ 50% |
| N#Cc1ccc(O[C@H]2CC[C@H](NC(=O)c3ccc(N4CCC(CN5CCC(n6ccc7c(N8CCC(=O)NC8=O)cncc76)CC5)CC4)nn3)CC2)cc1C(F)(F)F [EAR45, N-((1r,4r)-4-(4-Cyano-3-(trifluoromethyl)phenoxy)cyclohexyl)-6-(4-((4-(4-(2,4-dioxotetrahydropyrimidin-1(2H)-yl)-1H-pyrrolo[2,3-c]pyridin-1-yl)piperidin-1-yl)methyl)piperidin-1-yl)pyridazine-3-carboxamide] | ≥ 50% |
| CN(c1ccc(C#N)c(Cl)c1)[C@H]1CC[C@H](NC(=O)c2ccc(N3CCC(CN4CCC(n5ccc6c(N7CCC(=O)NC7=O)cc(F)cc65)CC4)CC3)nn2)CC1 [EAR201, N-((1r,4r)-4-((3-Chloro-4-cyanophenyl)(methyl)amino)cyclohexyl)-6-(4-((4-(4-(2,4-dioxotetrahydropyrimidin-1(2H)-yl)-6-fluoro-1H-indol-1-yl)piperidin-1-yl)methyl)piperidin-1-yl)pyridazine-3-carboxamide hydrochloride] | ≥ 50% |
| CC(C)n1ccc2c(N3CCC(=O)NC3=O)cc(C(=O)N(C)C3CCN(CCCCOc4ccc(C(=O)N[C@H]5CC[C@H](Oc6ccc(C#N)c(Cl)c6)CC5)nc4)CC3)cc21 [EAR64, N-(1-(4-((6-(((1r,4r)-4-(3-Chloro-4-cyanophenoxy)cyclohexyl)carbamoyl)pyridin-3-yl)oxy)butyl)piperidin-4-yl)-4-(2,4-dioxotetrahydropyrimidin-1(2H)-yl)-1-isopropyl-N-methyl-1H-indole-6-carboxamide] | ≥ 50% |
| N#Cc1ccc(O[C@H]2CC[C@H](NC(=O)c3ccc(OCCCCN4CCC(n5ccc6c(N7CCC(=O)NC7=O)cccc65)CC4)cn3)CC2)cc1Cl [EAR66, N-((1r,4r)-4-(3-chloro-4-cyanophenoxy)cyclohexyl)-5-(4-(4-(4-(2,4-dioxotetrahydropyrimidin-1(2H)-yl)-1H-indol-1-yl)piperidin-1-yl)butoxy)picolinamide] | ≥ 50% |
| CC1(C)C(=O)N(c2ccc(C#N)c(C(F)(F)F)c2)C(=S)N1c1ccc(N2CCC(CN3CCC(n4ncc5c(N6CCC(=O)NC6=O)cncc54)CC3)CC2)cc1 [EAR98, 4-(3-(4-(4-((4-(4-(2,4-Dioxotetrahydropyrimidin-1(2H)-yl)-1H-pyrazolo[3,4-c]pyridin-1-yl)piperidin-1-yl)methyl)piperidin-1-yl)phenyl)-4,4-dimethyl-5-oxo-2-thioxoimidazolidin-1-yl)-2-(trifluoromethyl)benzonitrile] | ≥ 50% |
| N#Cc1ccc(O[C@H]2CC[C@H](NC(=O)c3ccc(N4CCC(CCN5CCC(n6ccc7c(N8CCC(=O)NC8=O)cccc76)CC5)CC4)nn3)CC2)cc1Cl [EAR57, N-((1r,4r)-4-(3-Chloro-4-cyanophenoxy)cyclohexyl)-6-(4-(2-(4-(4-(2,4-dioxotetrahydropyrimidin-1(2H)-yl)-1H-indol-1-yl)piperidin-1-yl)ethyl)piperidin-1-yl)pyridazine-3-carboxamide hydrochloride] | ≥ 50% |
| CC(C)n1ccc2c(N3CCC(=O)NC3=O)cc(C(=O)N(C)CC3CCN(CC4CCN(c5ccc(N6C(=S)N(c7ccc(C#N)c(C(F)(F)F)c7)C(=O)C6(C)C)cc5)CC4)CC3)cc21 [EAR89, N-((1-((1-(4-(3-(4-Cyano-3-(trifluoromethyl)phenyl)-5,5-dimethyl-4-oxo-2-thioxoimidazolidin-1-yl)phenyl)piperidin-4-yl)methyl)piperidin-4-yl)methyl)-4-(2,4-dioxotetrahydropyrimidin-1(2H)-yl)-1-isopropyl-N-methyl-1H-indole-6-carboxamide] | ≥ 50% |
| N#Cc1ccc(O[C@H]2CC[C@H](NC(=O)c3cnc(N4CCC(CN5CCC(n6ncc7c(N8CCC(=O)NC8=O)cccc76)CC5)CC4)cn3)CC2)cc1Cl [EAR39, N-((1r,4r)-4-(3-Chloro-4-cyanophenoxy)cyclohexyl)-5-(4-((4-(4-(2,4-dioxotetrahydropyrimidin-1(2H)-yl)-1H-indazol-1-yl)piperidin-1-yl)methyl)piperidin-1-yl)pyrazine-2-carboxamide hydrochloride] | ≥ 50% |

Results, then the compound that gave them:

| Dmax | Structure (SMILES) |
| --- | --- |
| ≥ 50% | CC(C)n1ccc2c(N3CCC(=O)NC3=O)cc(C(=O)N3CCC4(CCN(CCCc5ccc(C(=O)N[C@H]6CC[C@H](Oc7ccc(C#N)c(Cl)c7)CC6)cc5)CC4)CC3)cc21 [EAR85, N-((1r,4r)-4-(3-Chloro-4-cyanophenoxy)cyclohexyl)-4-(3-(9-(4-(2,4-dioxotetrahydropyrimidin-1(2H)-yl)-1-isopropyl-1H-indole-6-carbonyl)-3,9-diazaspiro[5.5]undecan-3-yl)propyl)benzamide] |
| ≥ 50% | CC(C)n1ccc2c(N3CCC(=O)NC3=O)cc(C(=O)NCCOCCN3CCN(c4ccc(C(=O)N[C@H]5CC[C@H](Oc6ccc(C#N)c(Cl)c6)CC5)nn4)CC3)cc21 [EAR76, N-(2-(2-(4-(6-(((1r,4r)-4-(3-Chloro-4-cyanophenoxy)cyclohexyl)carbamoyl)pyridazin-3-yl)piperazin-1-yl)ethoxy)ethyl)-4-(2,4-dioxotetrahydropyrimidin-1(2H)-yl)-1-isopropyl-1H-indole-6-carboxamide] |
| ≥ 50% | CC1(C)[C@H](NC(=O)c2ncc(N3CCC(CN4CCC(n5ncc6c(N7CCC(=O)NC7=O)cccc65)CC4)CC3)cn2)C(C)(C)[C@H]1Oc1cnc(C#N)c(Cl)c1 [EAR268, N-((1r,3r)-3-((5-Chloro-6-cyanopyridin-3-yl)oxy)-2,2,4,4-tetramethylcyclobutyl)-5-(4-((4-(4-(2,4-dioxotetrahydropyrimidin-1(2H)-yl)-1H-indazol-1-yl)piperidin-1-yl)methyl)piperidin-1-yl)pyrimidine-2-carboxamide] |
| ≥ 50% | N#Cc1ccc(O[C@H]2CC[C@H](NC(=O)c3ccc(N4CCC(CN5CCC(n6ccc7c(N8CCC(=O)NC8=O)nccc76)CC5)CC4)nn3)CC2)cc1Cl [EAR148, N-((1r,4r)-4-(3-Chloro-4-cyanophenoxy)cyclohexyl)-6-(4-((4-(4-(2,4-dioxotetrahydropyrimidin-1(2H)-yl)-1H-pyrrolo[3,2-c]pyridin-1-yl)piperidin-1-yl)methyl)piperidin-1-yl)pyridazine-3-carboxamide] |
| ≥ 50% | N#Cc1ccc(O[C@H]2CC[C@H](NC(=O)c3ccc(N4CC5(CC(CN6CCC(n7ncc8c(N9CCC(=O)NC9=O)cccc87)CC6)C5)C4)nn3)CC2)cc1Cl [EAR224, N-((1r,4r)-4-(3-chloro-4-cyanophenoxy)cyclohexyl)-6-(6-((4-(4-(2,4-dioxotetrahydropyrimidin-1(2H)-yl)-1H-indazol-1-yl)piperidin-1-yl)methyl)-2-azaspiro[3.3]heptan-2-yl)pyridazine-3-carboxamide] |
| ≥ 50% | N#Cc1ccc(O[C@H]2CC[C@H](NC(=O)c3ccc(N4CCC5(CC4)CC(N4CCC(n6ccc7c(N8CCC(=O)NC8=O)cccc76)CC4)C5)nn3)CC2)cc1Cl [EAR193, N-((1r,4r)-4-(3-Chloro-4-cyanophenoxy)cyclohexyl)-6-(2-(4-(4-(2,4-dioxotetrahydropyrimidin-1(2H)-yl)-1H-indol-1-yl)piperidin-1-yl)-7-azaspiro[3.5]nonan-7-yl)pyridazine-3-carboxamide] |
| ≥ 50% | N#Cc1ccc(O[C@H]2CC[C@H](NC(=O)c3ccc(N4CCC(CN5CCC(n6ccc7c(N8CCC(=O)NC8=O)cccc76)CC5)CC4)cc3)CC2)cc1Cl [EAR169, N-((1r,4r)-4-(3-chloro-4-cyanophenoxy)cyclohexyl)-4-(4-((4-(4-(2,4-dioxotetrahydropyrimidin-1(2H)-yl)-1H-indol-1-yl)piperidin-1-yl)methyl)piperidin-1-yl)benzamide] |
| ≥ 50% | N#Cc1ccc(O[C@H]2CC[C@H](NC(=O)c3ccc(N4CCC(CN5CC[C@H](n6ccc7c(N8CCC(=O)NC8=O)cccc76)[C@@H](F)C5)CC4)nn3)CC2)cc1Cl [EAR145, N-((1r,4r)-4-(3-Chloro-4-cyanophenoxy)cyclohexyl)-6-(4-(((3S,4S)-4-(4-(2,4-dioxotetrahydropyrimidin-1(2H)-yl)-1H-indol-1-yl)-3-fluoropiperidin-1-yl)methyl)piperidin-1-yl)pyridazine-3-carboxamide, hydrochloride] |
| ≥ 50% | N#Cc1ccc(O[C@H]2CC[C@H](NC(=O)c3ccc(N4CCC(CN5CCC[C@@](F)(Cn6ccc7c(N8CCC(=O)NC8=O)cccc76)C5)CC4)nn3)CC2)cc1Cl [EAR159, N-((1r,4r)-4-(3-Chloro-4-cyanophenoxy)cyclohexyl)-6-(4-(((S)-3-((4-(2,4-dioxotetrahydropyrimidin-1(2H)-yl)-1H-indol-1-yl)methyl)-3-fluoropiperidin-1-yl)methyl)piperidin-1-yl)pyridazine-3-carboxamide] |
| ≥ 50% | CC1(C)[C@H](NC(=O)c2ncc(N3CCC(CN4CCC(n5ncc6c(N7CCC(=O)NC7=O)ccnc65)CC4)CC3)cn2)C(C)(C)[C@H]1Oc1ccc(C#N)c(Cl)c1 [EAR272, N-((1r,3r)-3-(3-Chloro-4-cyanophenoxy)-2,2,4,4-tetramethylcyclobutyl)-5-(4-((4-(4-(2,4-dioxotetrahydropyrimidin-1(2H)-yl)-1H-pyrazolo[3,4-b]pyridin-1-yl)piperidin-1-yl)methyl)piperidin-1-yl)pyrimidine-2-carboxamide] |
